Laboratory results as given in patent US20210330611A1, “THERAPY FOR NEUROLOGICAL DISEASES/DISORDERS” (priority 2020, published 2021).
Structures can show the parent of a compound that is named as a salt. Where two headings read alike, the source gives them in different places.

What was measured:
[1] = system: fibrin-induced microglia activation; assay: Image-based assay of fibrin-induced microglia activation (HTS and dose response); assay type: cell-based, rat; settings: for inhibition at 10 µM: Rattus norvegicus, Microglia, read-out: Fibrin % inhibition
[2] = system: LPS-induced microglia activation; assay: Image-based assay of LPS-induced microglia activation (HTS and dose response); assay type: cell-based, rat; settings: for inhibition at 10 µM: Rattus norvegicus, Microglia, read-out: LPS % inhibition
[3] = system: fibrin- and LPS-induced microglia activation; assay: cells; assay type: cell-based, rat
primary rat microglia [4] = system: primary rat microglia;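 on Fibrin % cell toxicity: share of dead cells sized under 150 µm2 at 10 µM in fibrin-stimulated microglia HTS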
primary rat microglia [5] = system: primary rat microglia; remark: listed apart in the source;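 on Fibrin % cell toxicity: share of dead cells sized under 150 µm2 at 10 µM in fibrin-stimulated microglia HTS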
[6] = primary microglia HTS, 10 μM, fibrin-stimulated, cell size >800 μm^2 as marker of activation
[7] = primary microglia HTS, 10 μM, LPS-stimulated, cell size >800 μm^2 as marker of activation
[8] = HTS of 1907 compounds, quadrant by fibrin and LPS inhibition
[9] = quadrant by fibrin and LPS inhibition, HTS at 10 μM

Molecule: C[N+](C)(C)CC(=O)O [Trimethyl Glycine]
- Fibrin % inhibition ([1]; 10 µM): −14%
- LPS % inhibition ([2]; 10 µM): 22%
- Quadrant (FIG. 5b) [3]: Q4
- Fibrin % cell toxicity (primary rat microglia [4]): 0%
- LPS % cell toxicity (primary rat microglia [5]): 0%

Molecule: Cc1ccc(/C(=C\CN2CCCC2)c2ccccn2)cc1 [Triprolidine]
- inhibition at 10 µM [1, 6]: -24%
- inhibition at 10 µM [2, 7]: 23%
- Quadrant (FIG. 5b) [3, 8]: Q4
- Fibrin % cell toxicity (primary rat microglia [4]; rat): 1%
- LPS % cell toxicity (primary rat microglia [5]; rat): 0%

Molecule: NC(CO)(CO)CO [Tris]
- Fibrin % inhibition ([1]; 10 µM): −18%
- LPS % inhibition ([2]; 10 µM): 41%
- Quadrant (FIG. 5b) [3]: Q4
- Fibrin % cell toxicity (primary rat microglia [4]): 1%
- LPS % cell toxicity (primary rat microglia [5]): 1%

Molecule: O=c1[nH]c(=O)n(Cl)c(=O)n1Cl [Troclosene Potassium]
- inhibition at 10 µM [1]: -8%
- inhibition at 10 µM [2]: 1%
- Quadrant (FIG. 5b) [3]: Q4
- Fibrin % cell toxicity (primary rat microglia [4]; rat): 1%
- LPS % cell toxicity (primary rat microglia [5]; rat): 0%

Molecule: N[C@@H](Cc1c[nH]c2ccccc12)C(=O)O [Tryptophan]
- inhibition at 10 µM [1, 6]: -6%
- inhibition at 10 µM [2, 7]: 16%
- Quadrant (FIG. 5b) [3, 8]: Q4
- Fibrin % cell toxicity (primary rat microglia [4]; rat): 1%
- LPS % cell toxicity (primary rat microglia [5]; rat): 0%

Molecule: N[C@@H](Cc1ccc(O)cc1)C(=O)O [Tyrosine]
- inhibition at 10 µM [1, 6]: -7%
- inhibition at 10 µM [2, 7]: 21%
- Quadrant (FIG. 5b) [3, 8]: Q4
- Fibrin % cell toxicity (primary rat microglia [4]; rat): 1%
- LPS % cell toxicity (primary rat microglia [5]; rat): 1%

Molecule: CCCC(CCC)C(=O)O [Valproic Acid]
- inhibition at 10 µM [1, 6]: -28%
- inhibition at 10 µM [2, 7]: 27%
- Quadrant (FIG. 5b) [3, 8]: Q4
- Fibrin % cell toxicity (primary rat microglia [4]; rat): 0%
- LPS % cell toxicity (primary rat microglia [5]; rat): 0%

Molecule: CN[C@H](CC(C)C)C(=O)N[C@H]1C(=O)N[C@@H](CC(N)=O)C(=O)N[C@H]2C(=O)N[C@H]3C(=O)N[C@H](C(=O)N[C@H](C(=O)O)c4cc(O)cc(O)c4-c4cc3ccc4O)[C@H](O)c3ccc(c(Cl)c3)Oc3cc2cc(c3O[C@@H]2O[C@H](CO)[C@@H](O)[C@H](O)[C@H]2O[C@H]2C[C@](C)(N)[C@H](O)[C@H](C)O2)Oc2ccc(cc2Cl)[C@H]1O [Vancomycin Hydrochloride]
- Fibrin % inhibition ([1]; 10 µM): −20%
- LPS % inhibition ([2]; 10 µM): 9%
- Quadrant (FIG. 5b) [3]: Q4
- Fibrin % cell toxicity (primary rat microglia [4]; rat): 1%
- LPS % cell toxicity (primary rat microglia [5]; rat): 0%

Molecule: CN[C@H](CC(C)C)C(=O)N[C@H]1C(=O)N[C@@H](CC(N)=O)C(=O)N[C@H]2C(=O)N[C@H]3C(=O)N[C@H](C(=O)N[C@H](C(=O)O)c4cc(O)cc(O)c4-c4cc3ccc4O)[C@H](O)c3ccc(c(Cl)c3)Oc3cc2cc(c3O[C@@H]2O[C@H](CO)[C@@H](O)[C@H](O)[C@H]2O[C@H]2C[C@](C)(N)[C@H](O)[C@H](C)O2)Oc2ccc(cc2Cl)[C@H]1O [Vancomycin]
- Fibrin % inhibition ([1]; 10 µM): −1%
- LPS % inhibition ([2]; 10 µM): −2%
- Quadrant (FIG. 5b) [3]: Q4
- Fibrin % cell toxicity (primary rat microglia [4]; rat): 1%
- LPS % cell toxicity (primary rat microglia [5]; rat): 0%

Molecule: Clc1ccc(Nc2nnc(Cc3ccncc3)c3ccccc23)cc1 [Vatalanib]
- inhibition at 10 µM [1, 6]: -26%
- inhibition at 10 µM [2, 7]: -3%
- Quadrant (FIG. 5b) [3, 8]: Q4
- Fibrin % cell toxicity (primary rat microglia [4]; rat): 1%
- LPS % cell toxicity (primary rat microglia [5]; rat): 0%

Molecule: CC[C@]1(O)C[C@H]2CN(CCc3c([nH]c4ccccc34)[C@@](C(=O)OC)(c3cc4c(cc3OC)N(C=O)[C@H]3[C@@](O)(C(=O)OC)[C@H](OC(C)=O)[C@]5(CC)C=CCN6CC[C@]43[C@@H]65)C2)C1 [Vincristine Sulfate]
- Fibrin % inhibition ([1]; primary microglia HTS, fibrin stimulation, compounds at 10 μM, 10 µM): 108%
- LPS % inhibition ([2]; primary microglia HTS, LPS stimulation, compounds at 10 μM, 10 µM): 119%
- Quadrant (FIG. 5b) [3, 9]: Q2
- Fibrin % cell toxicity (primary rat microglia [4]; rat): 16%
- LPS % cell toxicity (primary rat microglia [5]; rat): 7%

Molecule: CC[C@]1(O)C[C@H]2CN(CCc3c([nH]c4ccccc34)[C@@](C(=O)OC)(c3cc4c(cc3OC)N(C=O)[C@H]3[C@@](O)(C(=O)OC)[C@H](OC(C)=O)[C@]5(CC)C=CCN6CC[C@]43[C@@H]65)C2)C1 [Vincristine]
- inhibition at 10 µM ([1]; primary microglia HTS, fibrin stimulation, compounds at 10 μM): 105%
- inhibition at 10 µM ([2]; primary microglia HTS, LPS stimulation, compounds at 10 μM): 104%
- Quadrant (FIG. 5b) [3, 9]: Q2
- Fibrin % cell toxicity (primary rat microglia [4]; rat): 33%
- LPS % cell toxicity (primary rat microglia [5]; rat): 10%

Molecule: CC[C@]1(O)C[C@@H]2CN(CCc3c([nH]c4ccccc34)[C@@](C(=O)OC)(c3cc4c(cc3OC)N(C)[C@H]3[C@@](O)(C(N)=O)[C@H](O)[C@]5(CC)C=CCN6CC[C@]43[C@@H]65)C2)C1 [Vindesine, Vindesine Sulfate]
- Fibrin % inhibition ([1]; 10 µM): 106%
- LPS % inhibition ([2]; 10 µM): 102%
- Quadrant (FIG. 5b) [3]: Q2
- Fibrin % cell toxicity (primary rat microglia [4]): 30%
- LPS % cell toxicity (primary rat microglia [5]): 9%

Molecule: CCOC(=O)C1=C[C@]2(CC)CCCN3CCc4c(n1c1ccccc41)[C@@H]32 [Vinpocetine]
- inhibition at 10 µM [1, 6]: -19%
- inhibition at 10 µM [2, 7]: 0%
- Quadrant (FIG. 5b) [3, 8]: Q4
- Fibrin % cell toxicity (primary rat microglia [4]; rat): 0%
- LPS % cell toxicity (primary rat microglia [5]; rat): 0%

Molecule: COc1cc(C(=O)NS(=O)(=O)c2ccccc2C)ccc1Cc1cn(C)c2ccc(NC(=O)OC3CCCC3)cc12 [Zafirlukast]
- inhibition at 10 µM [1, 6]: -21%
- inhibition at 10 µM [2, 7]: 3%
- Quadrant (FIG. 5b) [3, 8]: Q4
- Fibrin % cell toxicity (primary rat microglia [4]; rat): 0%
- LPS % cell toxicity (primary rat microglia [5]; rat): 1%

Molecule: Nc1ccn([C@H]2CC[C@@H](CO)O2)c(=O)n1 [Zalcitabine]
- inhibition at 10 µM [1, 6]: -10%
- inhibition at 10 µM [2, 7]: 11%
- Quadrant (FIG. 5b) [3, 8]: Q4
- Fibrin % cell toxicity (primary rat microglia [4]; rat): 0%
- LPS % cell toxicity (primary rat microglia [5]; rat): 0%

Molecule: O=C1Cc2cc(CCN3CCN(c4nsc5ccccc45)CC3)c(Cl)cc2N1 [Ziprasidone Mesylate, Ziprasidone]
- Fibrin % inhibition [1, 6]: 14%
- LPS % inhibition [2, 7]: 35%
- Quadrant (FIG. 5b) [3, 8]: Q4
- Fibrin % cell toxicity (primary rat microglia [4]): 1%
- LPS % cell toxicity (primary rat microglia [5]): 1%

Molecule: Cc1ccc(-c2nc3ccc(C)cn3c2CC(=O)N(C)C)cc1 [Zolpidem, Zolpidem Tartrate]
- Fibrin % inhibition ([1]; 10 µM): −12%
- LPS % inhibition ([2]; 10 µM): 4%
- Quadrant (FIG. 5b) [3]: Q4
- Fibrin % cell toxicity (primary rat microglia [4]): 0%
- LPS % cell toxicity (primary rat microglia [5]): 0%

Molecule: Acriflavinium Hydrochloride
- Fibrin % inhibition ([1]; primary microglia HTS, fibrin stimulation, increased cell size (>800 μm^2) as marker of activation): 110%
- LPS % inhibition ([2]; primary microglia HTS, LPS stimulation, increased cell size (>800 μm^2) as marker of activation): 129%
- Quadrant (FIG. 5b) ([3]; quadrant by fibrin and LPS inhibition in HTS of 1907 compounds): Q2
- Fibrin % cell toxicity (primary rat microglia [4]): 57%
- LPS % cell toxicity (primary rat microglia [5]): 63%

Molecule: Hydrocortisone hemisuccinate [reference compound]
- Fibrin % inhibition [1]: 100%
- fib specificity [1]: 8.4
- fib_HS [1]: −0.39
- IC50 ([1]; read-out: Fibrin IC50): 0.02 µM
- IC50 ([1]; read-out: Fibrin IC50 (uM) (Suppl. Table 7)): 0.02 µM
- IC50 ([1]; read-out: fib_IC50): 0.004 µM
- LPS % inhibition [2]: 64%
- LPS specificity [2]: 0.1
- LPS_HS [2]: −1.10
- IC50 ([2]; read-out: LPS IC50): 7 µM
- IC50 ([2]; read-out: LPS IC50 (uM) (Suppl. Table 7)): 7 µM
- IC50 ([2]; read-out: LPS_IC50): 0.036 µM
- Activity [3]: fib/LPS
- Cherry-picked Hit (Suppl. Table 7) [3]: HIT (key: HIT: Hits were defined as molecules that exhibited greater than 50% inhibition of either fibrin or LPS activation)
- Hit [3]: HIT (key: HIT: Hits were defined as molecules that exhibited greater than 50% inhibition of either fibrin or LPS activation)
- Quadrant (FIG. 5b) [3]: Q2
- Fibrin % cell toxicity (primary rat microglia [4]): 1%
- IC50 (primary rat microglia [4]): > 20000 nM
- IC50 (primary rat microglia [5]): > 20000 nM
- LPS % cell toxicity (primary rat microglia [5]): 1%

Molecule: Modaline Sulfate
- Fibrin % inhibition [1]: −9%
- LPS % inhibition [2]: 25%
- Quadrant (FIG. 5b) [3]: Q4
- Fibrin % cell toxicity (primary rat microglia [4]): 1%
- LPS % cell toxicity (primary rat microglia [5]): 0%
